We go through 14 molecules from patent US11174250B2, “Substituted carboxamides as inhibitors of WDR5 protein-protein binding” (PROPELLON THERAPEUTICS INC., priority 2016, dated 2021).

The target in experiment [1] is WDR5 protein (Homo sapiens (Human), UniProt P61964). In words: Surface Plasmon Resonance (SPR) assay. The conditions noted are these: for residence time: τ=1/koff, read-out: Residence Time (t, min). The class given is binding.
The target of experiment [2] is MLL1-WRAD2 complex (Homo sapiens (Human), UniProt P61964). In words: MLL1-WRAD2 enzyme assay (in vitro methyl transferase assay). The class given is biochemical. The protocol: Reaction was initiated with 1 μM 3H-SAM and incubated for 1 hour at 30° C. Reaction mixture was transferred to P81 filter-paper and washed with PBS before detection.
In experiment [3] the test system is MV4-11 cells. In words: Cell proliferation assay (ATPlite). The class given is cell-based. The conditions noted are these: Homo sapiens, MV4-11, 120 h; MV-411 cells, five days; read-out: In vitro whole cell potency in MV-411 cells, (IC50). The protocol:
MV4-11 cells were seeded into a 96-well plate at 1,000 cells/well in 150 μl medium (Alpha-MEM containing 10% FBS, 100 μg/ml Normocin, and 50 μg/ml Gentamycin, Invitrogen). A HP D300 digital dispenser was used to dose cells with DMSO or test compounds across a 10-point range of concentrations (high dose of 10 μM), and cultures were grown in a humidified 5% CO2 incubator at 37° C. After five days, plates were removed from incubator and equilibrated to room temperature. An equal volume of ATPlite assay reagent was added to each well, and samples were processed according to manufacturer's instructions (Perkin Elmer). Luminescent signal was measured using an Envision plate reader equipped with a US-Luminescence detector.
For orientation: ATP-based viability assays read luminescence as a measure of living cells.

Setting [4] is: SPR, Table 1, read-out: WDR5 binding affinity (KD).
[5] abbreviates: SPR, Table 2, read-out: WDR5 binding affinity SPR (KD).
Setting [6] is: MLL1-WRAD2 assay, read-out: In vitro MLL1 activity (IC50).

Where two headings read alike, the source gives them in different places.

Consider `COCOc1cc(F)c(-c2ccc(N3CCN(C)CC3)c(NC(=O)c3c[nH]c(=O)cc3C(F)(F)F)c2)cc1C(=O)NC(C)(C)CC(C)(C)C` [Example 3, N-(2′-fluoro-4′-(methoxymethoxy)-4-(4-methylpiperazin-1-yl)-5′-((2,4,4-trimethylpentan-2-yl)carbamoyl)-[1,1′-biphenyl]-3-yl)-6-oxo-4-(trifluoromethyl)-1,6-dihydropyridine-3-carboxamide], for which the Kd in experiment [1] (setting [4]) and in experiment [1] (setting [5]) was 11 nM each time. In addition, the residence time in experiment [1] (SPR) is 6.4 min. Also, the IC50 is 966 nM in experiment [2] (setting [6]) and 3180 nM in experiment [3].
As to `CN1CCN(c2ccc(-c3cc(CNC4CCCCC4)ccc3F)cc2NC(=O)c2c[nH]c(=O)cc2C(F)(F)F)CC1` [Example 7, N-(5′-((cyclohexylamino)methyl)-2′-fluoro-4-(4-methylpiperazin-1-yl)-[1,1′-biphenyl]-3-yl)-6-oxo-4-(trifluoromethyl)-1,6-dihydropyridine-3-carboxamide], the Kd in experiment [1] (setting [4]) and in experiment [1] (setting [5]) was 4 nM in each case. Also, the residence time in experiment [1] (SPR) came to 7.88 min. Moreover, the figures for the IC50 in experiment [2] (setting [6]) and in experiment [3] were 216 nM and 410 nM, respectively.
For the molecule `CN1CCN(c2ccc(-c3cc(OCC4CC4)ncc3F)cc2NC(=O)c2c[nH]c(=O)cc2C(F)(F)F)CC1` [Example 15, N-(5-(2-(cyclopropylmethoxy)-5-fluoropyridin-4-yl)-2-(4-methylpiperazin-1-yl)phenyl)-6-oxo-4-(trifluoromethyl)-1,6-dihydropyridine-3-carboxamide], the Kd in experiment [1] (setting [4]) and in experiment [1] (setting [5]) was 9 nM in each case. For the same molecule, the residence time in experiment [1] (SPR) came to 4.04 min. For the same molecule, the IC50 stood at 2250 nM in experiment [2] (setting [6]) and 2260 nM in experiment [3].
For `CN1CCN(c2ccc(-c3ccc(OCC4CC4)nc3F)cc2NC(=O)c2c[nH]c(=O)cc2C(F)(F)F)CC1` [Example 16, N-(5-(6-(cyclopropylmethoxy)-2-fluoropyridin-3-yl)-2-(4-methylpiperazin-1-yl)phenyl)-6-oxo-4-(trifluoromethyl)-1,6-dihydropyridine-3-carboxamide], the equilibrium dissociation constant (Kd) in experiment [1] (setting [4]) and in experiment [1] (setting [5]) was 10 nM each time. Further, the residence time in experiment [1] (SPR) came out at 5.25 min. Moreover, the figures for the IC50 in experiment [2] (setting [6]) and in experiment [3] were 1470 nM and 5970 nM, respectively.
For the molecule `CC1CN(c2ccc(-c3cc(CN4CCOCC4)ccc3F)cc2NC(=O)c2c[nH]c(=O)cc2C(F)(F)F)CCN1C` (centres unmarked) [Example 26, N-(4-(3,4-dimethylpiperazin-1-yl)-2′-fluoro-5′-(morpholinomethyl)-[1,1′-biphenyl]-3-yl)-6-hydroxy-4-(trifluoromethyl)nicotinamide], the Kd in experiment [1] (setting [4]) and in experiment [1] (setting [5]) was 9 nM in each case. In experiment [1] (SPR), the residence time was 3.07 min. The IC50 in experiment [3] was 491 nM.
For `C[C@@H]1CN(c2ccc(-c3cc(CN4CCOCC4)ccc3F)cc2NC(=O)c2c[nH]c(=O)cc2C(F)(F)F)C[C@H](C)N1C` [Example 27, N-(2′-fluoro-5′-(morpholinomethyl)-4-((3S,5R)-3,4,5-trimethylpiperazin-1-yl)-[1,1′-biphenyl]-3-yl)-6-oxo-4-(trifluoromethyl)-1,6-dihydropyridine-3-carboxamide], the dissociation constant (Kd) in experiment [1] (setting [4]) and in experiment [1] (setting [5]) was 8 nM throughout. Moreover, the residence time in experiment [1] (SPR) amounted to 5.84 min. Also, the half-inhibitory concentration (IC50) in experiment [2] (setting [6]) worked out at 529 nM; in experiment [3], 737 nM.
As for `CN1CCN(c2ccc(-c3cc(OC4CCOCC4)ncc3F)cc2NC(=O)c2c[nH]c(=O)cc2C(F)(F)F)CC1` [Example 31, N-(5-(5-fluoro-2-((tetrahydro-2H-pyran-4-yl)oxy)pyridin-4-yl)-2-(4-methylpiperazin-1-yl)phenyl)-6-oxo-4-(trifluoromethyl)-1,6-dihydropyridine-3-carboxamide], the Kd in experiment [1] (setting [4]) and in experiment [1] (setting [5]) was 9 nM in each case. Further, in experiment [1] (SPR), the residence time was found to be 5.76 min. Moreover, the results for the IC50 in experiment [2] (setting [6]) and in experiment [3] were 1740 nM and 1280 nM, respectively.
With `CN1CCN(c2ccc(-c3cc(C(=O)NC4CCCCC4)ccc3F)cc2NC(=O)c2c[nH]c(=O)cc2C(F)(F)F)CC1` [Example 32, N-(5′-(cyclohexylcarbamoyl)-2′-fluoro-4-(4-methylpiperazin-1-yl)-[1,1′-biphenyl]-3-yl)-6-oxo-4-(trifluoromethyl)-1,6-dihydropyridine-3-carboxamide], the Kd in experiment [1] (setting [4]) and in experiment [1] (setting [5]) was 6 nM throughout. For the same molecule, the residence time in experiment [1] (SPR) amounted to 9.48 min. Besides, the IC50 in experiment [2] (setting [6]) is 332 nM; in experiment [3], 680 nM.
On to `CN1CCN(c2ccc(-c3cc(C(=O)N(C)C4CCCCC4)ccc3F)cc2NC(=O)c2c[nH]c(=O)cc2C(F)(F)F)CC1` [Example 110, N-(5′-(cyclohexyl(methyl)carbamoyl)-2′-fluoro-4-(4-methylpiperazin-1-yl)-[1,1′-biphenyl]-3-yl)-6-oxo-4-(trifluoromethyl)-1,6-dihydropyridine-3-carboxamide], for which the values for the Kd in experiment [1] (setting [4]) and in experiment [1] (setting [5]) were 4.2 nM and 4 nM, respectively. Further, the residence time in experiment [1] (SPR) is 7.2 min. For the same molecule, the IC50 in experiment [2] (setting [6]) was 607 nM.
As to `C[C@@H]1CN(c2ccc(-c3cc(C(=O)N(C)C4CCCCC4)ccc3F)cc2NC(=O)c2c[nH]c(=O)cc2C(F)(F)F)C[C@H](C)N1C` [Example 111, N-(5′-(cyclohexyl(methyl)carbamoyl)-2′-fluoro-4-((3S,5R)-3,4,5-trimethylpiperazin-1-yl)-[1,1′-biphenyl]-3-yl)-6-oxo-4-(trifluoromethyl)-1,6-dihydropyridine-3-carboxamide], the Kd is 2.4 nM in experiment [1] (setting [4]) and 24 nM in experiment [1] (setting [5]). Further, in experiment [1] (SPR), the residence time was 34 min. Also, in experiment [2] (setting [6]), the IC50 worked out at 203 nM.
As for `C[C@@H]1CN(c2ccc(-c3cc(CN(C)C4COC4)c(F)cc3F)cc2NC(=O)c2c[nH]c(=O)cc2C(F)(F)F)C[C@H](C)N1C` [Example 113, N-(2′,4′-difluoro-5′-((methyl(oxetan-3-yl)amino)methyl)-4-((3S,5R)-3,4,5-trimethylpiperazin-1-yl)-[1,1′-biphenyl]-3-yl)-6-oxo-4-(trifluoromethyl)-1,6-dihydropyridine-3-carboxamide], the Kd was 8.2 nM in experiment [1] (setting [4]) and 8 nM in experiment [1] (setting [5]). Besides, in experiment [1] (SPR), the residence time amounted to 5.5 min. Besides, in experiment [2] (setting [6]), the IC50 worked out at 2100 nM.
The like results for `C[C@@H]1CN(c2ccc(-c3c(F)ccc(CNC4CCCCC4)c3F)cc2NC(=O)c2c[nH]c(=O)cc2C(F)(F)F)C[C@H](C)N1C` [Example 114, N-(3′-((cyclohexylamino)methyl)-2′,6′-difluoro-4-((3S,5R)-3,4,5-trimethylpiperazin-1-yl)-[1,1′-biphenyl]-3-yl)-6-oxo-4-(trifluoromethyl)-1,6-dihydropyridine-3-carboxamide] were, in that order, 13 nM, 13 nM, 4.3 min and 11100 nM.
On to `CC1CN(c2ccc(-c3cc(C(=O)NC4CCCCC4)ccc3F)cc2NC(=O)c2c[nH]c(=O)cc2C(F)(F)F)CC(C)N1C` (centres unmarked) [Example 124, N-(5′-(cyclohexylcarbamoyl)-2′-fluoro-4-(3,4,5-trimethylpiperazin-1-yl)-[1,1′-biphenyl]-3-yl)-6-oxo-4-(trifluoromethyl)-1,6-dihydropyridine-3-carboxamide], for which the Kd in experiment [1] (setting [4]) and in experiment [1] (setting [5]) was 1.7 nM in each case. In experiment [1] (SPR), the residence time amounted to 20.6 min. In addition, the IC50 in experiment [2] (setting [6]) is 293 nM.
Take `CN1CCN(c2ccc(-c3cc(CN4CCC(F)CC4)ccc3F)cc2NC(=O)c2c[nH]c(=O)cc2C(F)(F)F)CC1` [drawing 287]: in experiment [1] (Table 4, effect of Fluoro-substitution), the τ came out at 5.44 min. Also, the Kd in experiment [1] (Table 4, effect of Fluoro-substitution, read-out: KD (SPR)) was 11 nM. For the same molecule, the concentration for half-maximal inhibition (IC50) in experiment [2] (Table 4, effect of Fluoro-substitution, read-out: IC50 (MLL1)) was 592 nM.

A word on the Kd: it is the concentration at which binding is half-saturated. By residence time is commonly meant the mean lifetime of the complex, commonly the reciprocal of the off-rate. Usually IC50 stands for the concentration that gives 50% inhibition.
